Results taken from patent US11357779B2 (G1 Therapeutics, Inc., priority 2018, dated 2022).
Read-outs that look alike come from different tables or passages of the source.

Assay: Noncompartmental pharmacokinetic parameters (Cmax, Tmax, AUC, Racc) in QD and BID cohorts of Form B
Format: in vivo, human
Details: human, plasma, oral, Compound III
Description: Analysis of plasma concentration versus time data for calculation of standard pharmacokinetic (PK) parameters following oral administration was conducted using Phoenix WinNonlin version 6.3 using actual blood sampling times.
The following pharmacokinetic parameters were calculated from the concentration versus time data obtained in Example 1 for each of the above QD (200 mg, 300 mg, 400 mg, 500 mg, or 650 mg dosed) and BID (100 mg, 150 mg, or 200 mg doses) Form B of Compound II dosage cohorts: • Cmax—the observed peak plasma concentration determined from the plasma concentration versus time data obtained on Day 1 and Day 29, as applicable; • Tmax—the time to reach the observed peak plasma concentration from the plasma concentration versus time data obtained on Day 1 and Day 29, as applicable; • AUC—area under the plasma concentration versus time curve during a dosing interval on Day 1 and Day 29, as applicable; and • Racc—accumulation ratio calculated as AUCDay 29/AUCDay 1.

Structure (SMILES): O=C1NCC2(CCCCC2)n2c1cc1cnc(Nc3ccc(N4CCNCC4)cn3)nc12 [Compound III, 2′-((5-(piperazin-1-yl)pyridin-2-yl)amino)-7′,8′-dihydro-6′H-spiro[cyclohexane-1,9′-pyrazino[1′,2′:1,5]pyrrolo[2,3-d]pyrimidin]-6′-one]
- AUC(0-t) (150 mg, 150 mg BID of Form B, Cohort 7, Day 1, read-out: AUClast (Median)): 16.3 ng·h/mL
- Cmax (150 mg, 150 mg BID of Form B, Cohort 7, Day 1, read-out: Cmax (Mean)): 3.2 ng/mL
- Cmax (150 mg, 150 mg BID of Form B, Cohort 7, Day 1, read-out: Cmax (Median)): 3 ng/mL
- Tmax (150 mg, 150 mg BID of Form B, Cohort 7, Day 1, read-out: Tmax (Mean)): 3 h
- Tmax (150 mg, 150 mg BID of Form B, Cohort 7, Day 1, read-out: Tmax (Median)): 3 h
- AUC(0-t) (150 mg, 150 mg BID of Form B, Cohort 7, Day 29, read-out: AUClast (Mean)): 47.9 ng·h/mL
- AUC(0-t) (150 mg, 150 mg BID of Form B, Cohort 7, Day 29, read-out: AUClast (Median)): 23.3 ng·h/mL
- Cmax (150 mg, 150 mg BID of Form B, Cohort 7, Day 29, read-out: Cmax (Mean)): 6.23 ng/mL
- Cmax (150 mg, 150 mg BID of Form B, Cohort 7, Day 29, read-out: Cmax (Median)): 3.55 ng/mL
- Tmax (150 mg, 150 mg BID of Form B, Cohort 7, Day 29, read-out: Tmax (Mean)): 3 h
- Tmax (150 mg, 150 mg BID of Form B, Cohort 7, Day 29, read-out: Tmax (Median)): 3 h
- AUC(0-t) (200 mg, 200 mg BID of Form B, Cohort 8, Day 1, read-out: AUClast (Mean)): 17.2 ng·h/mL
- AUC(0-t) (200 mg, 200 mg BID of Form B, Cohort 8, Day 1, read-out: AUClast (Median)): 18.6 ng·h/mL
- Cmax (200 mg, 200 mg BID of Form B, Cohort 8, Day 1, read-out: Cmax (Mean)): 2.87 ng/mL
- Cmax (200 mg, 200 mg BID of Form B, Cohort 8, Day 1, read-out: Cmax (Median)): 3 ng/mL
- Tmax (200 mg, 200 mg BID of Form B, Cohort 8, Day 1, read-out: Tmax (Mean)): 4.75 h
- Tmax (200 mg, 200 mg BID of Form B, Cohort 8, Day 1, read-out: Tmax (Median)): 5 h
- AUC(0-t) (200 mg, 200 mg BID of Form B, Cohort 8, Day 29, read-out: AUClast (Mean)): 22 ng·h/mL
- AUC(0-t) (200 mg, 200 mg BID of Form B, Cohort 8, Day 29, read-out: AUClast (Median)): 20.1 ng·h/mL
- Cmax (200 mg, 200 mg BID of Form B, Cohort 8, Day 29, read-out: Cmax (Mean)): 2.79 ng/mL
- Cmax (200 mg, 200 mg BID of Form B, Cohort 8, Day 29, read-out: Cmax (Median)): 2.77 ng/mL
- Tmax (200 mg, 200 mg BID of Form B, Cohort 8, Day 29, read-out: Tmax (Mean)): 6.33 h
- Tmax (200 mg, 200 mg BID of Form B, Cohort 8, Day 29, read-out: Tmax (Median)): 4 h
- AUC(0-t) (200 mg, 200 mg QD of Form B, Cohort 1, Day 1, read-out: AUClast (Mean)): 23.7 ng·h/mL
- AUC(0-t) (200 mg, 200 mg QD of Form B, Cohort 1, Day 1, read-out: AUClast (Median)): 21.3 ng·h/mL
- Cmax (200 mg, 200 mg QD of Form B, Cohort 1, Day 1, read-out: Cmax (Mean)): 4.18 ng/mL
- Cmax (200 mg, 200 mg QD of Form B, Cohort 1, Day 1, read-out: Cmax (Median)): 3.88 ng/mL
- Tmax (200 mg, 200 mg QD of Form B, Cohort 1, Day 1, read-out: Tmax (Mean)): 4.17 h
- Tmax (200 mg, 200 mg QD of Form B, Cohort 1, Day 1, read-out: Tmax (Median)): 4 h
- AUC(0-t) (200 mg, 200 mg QD of Form B, Cohort 1, Day 29, read-out: AUClast (Mean)): 27.9 ng·h/mL
- AUC(0-t) (200 mg, 200 mg QD of Form B, Cohort 1, Day 29, read-out: AUClast (Median)): 25.4 ng·h/mL
- Cmax (200 mg, 200 mg QD of Form B, Cohort 1, Day 29, read-out: Cmax (Mean)): 3.14 ng/mL
- Cmax (200 mg, 200 mg QD of Form B, Cohort 1, Day 29, read-out: Cmax (Median)): 2.52 ng/mL
- Tmax (200 mg, 200 mg QD of Form B, Cohort 1, Day 29, read-out: Tmax (Mean)): 4.2 h
- Tmax (200 mg, 200 mg QD of Form B, Cohort 1, Day 29, read-out: Tmax (Median)): 4 h
- AUC(0-t) (300 mg, 300 mg QD of Form B, Cohort 2, Day 1, read-out: AUClast (Mean)): 43.1 ng·h/mL
- AUC(0-t) (300 mg, 300 mg QD of Form B, Cohort 2, Day 1, read-out: AUClast (Median)): 53.1 ng·h/mL
- Cmax (300 mg, 300 mg QD of Form B, Cohort 2, Day 1, read-out: Cmax (Mean)): 4.81 ng/mL
- Cmax (300 mg, 300 mg QD of Form B, Cohort 2, Day 1, read-out: Cmax (Median)): 6.21 ng/mL
- Tmax (300 mg, 300 mg QD of Form B, Cohort 2, Day 1, read-out: Tmax (Mean)): 3.67 h
- Tmax (300 mg, 300 mg QD of Form B, Cohort 2, Day 1, read-out: Tmax (Median)): 4 h
- AUC(0-t) (300 mg, 300 mg QD of Form B, Cohort 2, Day 29, read-out: AUClast (Mean)): 66.2 ng·h/mL
- AUC(0-t) (300 mg, 300 mg QD of Form B, Cohort 2, Day 29, read-out: AUClast (Median)): 56.1 ng·h/mL
- Cmax (300 mg, 300 mg QD of Form B, Cohort 2, Day 29, read-out: Cmax (Mean)): 5.44 ng/mL
- Cmax (300 mg, 300 mg QD of Form B, Cohort 2, Day 29, read-out: Cmax (Median)): 5.56 ng/mL
- Tmax (300 mg, 300 mg QD of Form B, Cohort 2, Day 29, read-out: Tmax (Mean)): 5.33 h
- Tmax (300 mg, 300 mg QD of Form B, Cohort 2, Day 29, read-out: Tmax (Median)): 4 h
- AUC(0-t) (400 mg, 400 mg QD of Form B, Cohort 3, Day 1, read-out: AUClast (Mean)): 25.6 ng·h/mL
- AUC(0-t) (400 mg, 400 mg QD of Form B, Cohort 3, Day 1, read-out: AUClast (Median)): 29.2 ng·h/mL
- Cmax (400 mg, 400 mg QD of Form B, Cohort 3, Day 1, read-out: Cmax (Mean)): 4.85 ng/mL
- Cmax (400 mg, 400 mg QD of Form B, Cohort 3, Day 1, read-out: Cmax (Median)): 4.66 ng/mL
- Tmax (400 mg, 400 mg QD of Form B, Cohort 3, Day 1, read-out: Tmax (Mean)): 4.33 h
- Tmax (400 mg, 400 mg QD of Form B, Cohort 3, Day 1, read-out: Tmax (Median)): 6 h
- AUC(0-t) (400 mg, 400 mg QD of Form B, Cohort 3, Day 29, read-out: AUClast (Mean)): 42.6 ng·h/mL
- AUC(0-t) (400 mg, 400 mg QD of Form B, Cohort 3, Day 29, read-out: AUClast (Median)): 40.9 ng·h/mL
- Cmax (400 mg, 400 mg QD of Form B, Cohort 3, Day 29, read-out: Cmax (Mean)): 3.5 ng/mL
- Cmax (400 mg, 400 mg QD of Form B, Cohort 3, Day 29, read-out: Cmax (Median)): 3.4 ng/mL
- Tmax (400 mg, 400 mg QD of Form B, Cohort 3, Day 29, read-out: Tmax (Mean)): 5.33 h
- Tmax (400 mg, 400 mg QD of Form B, Cohort 3, Day 29, read-out: Tmax (Median)): 6 h
- AUC(0-t) (500 mg, 500 mg QD of Form B, Cohort 4, Day 1, read-out: AUClast (Mean)): 77.7 ng·h/mL
- AUC(0-t) (500 mg, 500 mg QD of Form B, Cohort 4, Day 1, read-out: AUClast (Median)): 79 ng·h/mL
- Cmax (500 mg, 500 mg QD of Form B, Cohort 4, Day 1, read-out: Cmax (Mean)): 7.98 ng/mL
- Cmax (500 mg, 500 mg QD of Form B, Cohort 4, Day 1, read-out: Cmax (Median)): 8.03 ng/mL
- Tmax (500 mg, 500 mg QD of Form B, Cohort 4, Day 1, read-out: Tmax (Mean)): 5.5 h
- Tmax (500 mg, 500 mg QD of Form B, Cohort 4, Day 1, read-out: Tmax (Median)): 6 h
- AUC(0-t) (500 mg, 500 mg QD of Form B, Cohort 4, Day 29, read-out: AUClast (Mean)): 66.4 ng·h/mL
- AUC(0-t) (500 mg, 500 mg QD of Form B, Cohort 4, Day 29, read-out: AUClast (Median)): 69.6 ng·h/mL
- Cmax (500 mg, 500 mg QD of Form B, Cohort 4, Day 29, read-out: Cmax (Mean)): 5.98 ng/mL
- Cmax (500 mg, 500 mg QD of Form B, Cohort 4, Day 29, read-out: Cmax (Median)): 5.37 ng/mL
- Tmax (500 mg, 500 mg QD of Form B, Cohort 4, Day 29, read-out: Tmax (Mean)): 3.67 h
- Tmax (500 mg, 500 mg QD of Form B, Cohort 4, Day 29, read-out: Tmax (Median)): 4 h
- AUC(0-t) (650 mg, 650 mg QD of Form B, Cohort 5, Day 1, read-out: AUClast (Mean)): 123 ng·h/mL
- AUC(0-t) (650 mg, 650 mg QD of Form B, Cohort 5, Day 1, read-out: AUClast (Median)): 125 ng·h/mL
- Cmax (650 mg, 650 mg QD of Form B, Cohort 5, Day 1, read-out: Cmax (Mean)): 10.9 ng/mL
- Cmax (650 mg, 650 mg QD of Form B, Cohort 5, Day 1, read-out: Cmax (Median)): 10.4 ng/mL
- Tmax (650 mg, 650 mg QD of Form B, Cohort 5, Day 1, read-out: Tmax (Mean)): 6.67 h
- Tmax (650 mg, 650 mg QD of Form B, Cohort 5, Day 1, read-out: Tmax (Median)): 7 h
- AUC(0-t) (650 mg, 650 mg QD of Form B, Cohort 5, Day 29, read-out: AUClast (Mean)): 125 ng·h/mL
- AUC(0-t) (650 mg, 650 mg QD of Form B, Cohort 5, Day 29, read-out: AUClast (Median)): 125 ng·h/mL
- Cmax (650 mg, 650 mg QD of Form B, Cohort 5, Day 29, read-out: Cmax (Mean)): 8.7 ng/mL
- Cmax (650 mg, 650 mg QD of Form B, Cohort 5, Day 29, read-out: Cmax (Median)): 8.7 ng/mL
- Tmax (650 mg, 650 mg QD of Form B, Cohort 5, Day 29, read-out: Tmax (Mean)): 7 h
- Tmax (650 mg, 650 mg QD of Form B, Cohort 5, Day 29, read-out: Tmax (Median)): 7 h
